Results: patent publication US8536172B2, “Inhibitors of JNK” (Roche Palo Alto LLC, priority 2009, dated 2013)

How the values were obtained:
[1] = molecular target: Human JNK1α1 (Homo sapiens (Human), UniProt P45983); assay: JNK assay in vitro: phosphorylation of GST-ATF2 (19-96) with [γ-33P] ATP, JNK1; assay type: biochemical; conditions: 2 nM enzyme, 1 μM ATF2, 6 μM ATP (Km), 30° C. 30 min
Experimental: JNK activity was measured by phosphorylation of GST-ATF2 (19-96) with [γ-^33P] ATP. […] Human JNK2α2 assay contains 1 nM enzyme, 1 μM ATF2, 8 μM ATP with 1 uCi [γ-^33P] ATP. Human JNK1α1 assay contains 2 nM enzyme, 1 μM ATF2, 6 μM ATP with 1 μCi [γ-^33P] ATP. […] ATP. The enzyme assay was carried out in the presence or absence of several compound concentrations. JNK and compound were pre-incubated for 10 min., followed by initiation of the enzymatic reaction by adding ATP and the substrate. The reaction mixture was incubated at 30° C. for 30 min. […] The incorporation of ^33P into ATF2 was quantified on a microplate scintillation counter (Packard Topcount). Compound inhibition potency on JNK was measured by IC50 value generated from ten concentration inhibition curves fitted into the 3-parameter model: % inhibition=Maximum/(1+(IC50/[Inhibitor])^slope). Data were analyzed on Microsoft Excel for parameter estimation.

[2] = molecular target: Human JNK2α2 (Homo sapiens (Human), UniProt P45984); assay: JNK assay in vitro: phosphorylation of GST-ATF2 (19-96) with [γ-33P] ATP, JNK2; assay type: biochemical; conditions: 1 nM enzyme, 1 μM ATF2, 8 μM ATP (Km), 30° C. 30 min
Experimental: JNK activity was measured by phosphorylation of GST-ATF2 (19-96) with [γ-^33P] ATP. […] Human JNK2α2 assay contains 1 nM enzyme, 1 μM ATF2, 8 μM ATP with 1 uCi [γ-^33P] ATP. Human JNK1α1 assay contains 2 nM enzyme, 1 μM ATF2, 6 μM ATP with 1 μCi [γ-^33P] ATP. Human JNK3 (Upstate Biotech #14-501M) assay contains 2 nM enzyme, 1 μM ATF2, 4 μM ATP with 1 μCi [γ-^33P] ATP. The enzyme assay was carried out in the presence or absence of several compound concentrations. JNK and compound were pre-incubated for 10 min., followed by initiation of the enzymatic reaction by adding ATP and the substrate. The reaction mixture was incubated at 30° C. for 30 min. At the end of incubation, the reaction was terminated by transferring 25 μl of the reaction mixture to 150 μl of 10% glutathione Sepharose® slurry (Amersham #27-4574-01) containing 135 mM EDTA. The reaction product was captured on the affinity resin, and washed on a filtration plate (Millipore, MABVNOB50) with phosphate buffered saline for six times to remove free radionucleotide. The incorporation of ^33P into ATF2 was quantified on a microplate scintillation counter (Packard Topcount). Compound inhibition potency on JNK was measured by IC50 value generated from ten concentration inhibition curves fitted into the 3-parameter model: % inhibition=Maximum/(1+(IC50/[Inhibitor])^slope). Data were analyzed on Microsoft Excel for parameter estimation.

Sequence of Human JNK2α2 (P45984 whole entry): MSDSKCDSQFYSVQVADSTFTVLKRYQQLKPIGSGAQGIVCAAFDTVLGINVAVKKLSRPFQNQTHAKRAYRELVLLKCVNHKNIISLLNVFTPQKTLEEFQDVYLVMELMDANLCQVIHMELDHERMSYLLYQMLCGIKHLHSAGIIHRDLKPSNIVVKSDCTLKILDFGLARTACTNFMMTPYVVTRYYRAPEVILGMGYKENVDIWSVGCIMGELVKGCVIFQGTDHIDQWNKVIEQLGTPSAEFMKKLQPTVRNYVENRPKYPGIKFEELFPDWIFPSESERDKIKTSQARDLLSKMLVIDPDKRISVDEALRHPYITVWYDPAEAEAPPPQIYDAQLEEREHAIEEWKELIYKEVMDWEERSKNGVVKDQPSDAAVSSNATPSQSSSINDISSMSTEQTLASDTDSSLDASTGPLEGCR
Sequence of Human JNK1α1 (P45983 other isoform, or with tags, fused parts or gaps): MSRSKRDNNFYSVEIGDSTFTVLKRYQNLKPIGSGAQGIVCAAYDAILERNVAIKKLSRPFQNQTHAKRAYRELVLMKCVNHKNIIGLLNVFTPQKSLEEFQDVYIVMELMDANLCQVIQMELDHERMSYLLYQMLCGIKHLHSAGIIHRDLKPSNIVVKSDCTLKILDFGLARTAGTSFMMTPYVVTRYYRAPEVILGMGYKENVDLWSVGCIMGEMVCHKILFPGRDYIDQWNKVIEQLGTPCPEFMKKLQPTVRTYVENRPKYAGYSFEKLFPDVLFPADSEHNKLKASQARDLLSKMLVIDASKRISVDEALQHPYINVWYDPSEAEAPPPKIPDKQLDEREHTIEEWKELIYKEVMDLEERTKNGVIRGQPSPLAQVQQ

Row | SMILES | IC50 [1] [nM] | IC50 [2] [nM]
1 | CS(=O)(=O)N[C@H]1CC[C@H](Nc2nccc(-n3ccc4c(N5CCN(C(=O)CC#N)CC5)cccc43)n2)CC1 [Compound I-9, N-[4-(4-{4-[4-(2-Cyano-acetyl)-piperazin-1-yl]-indol-1-yl}-pyrimidin-2-ylamino)-cyclohexyl]-methanesulfonamide] | 5.4 | 36.2
2 | CC(=O)OCC(=O)N1CCN(c2cccc3c2ccn3-c2ccnc(N[C@H]3CC[C@H](NS(C)(=O)=O)CC3)n2)CC1 [Compound I-10, Acetic acid 2-(4-{1-[2-(4-methanesulfonylamino-cyclohexylamino)-pyrimidin-4-yl]-1H-indol-4-yl}-piperazin-1-yl)-2-oxo-ethyl ester] | 10.4 | 74.9
3 | CC(=O)N[C@H]1CC[C@H](Nc2nccc(-n3ccc4c(N5CCC(S(C)(=O)=O)CC5)cccc43)n2)CC1 [Compound I-13, N-(4-{4-[4-(4-Methanesulfonyl-piperidin-1-yl)-indol-1-yl]-pyrimidin-2-ylamino}-cyclohexyl)-acetamide] | 6.6 | 49.3
4 | CC(C)(O)[C@H]1CC[C@H](Nc2nccc(-n3ccc4c(N5CCC(S(C)(=O)=O)CC5)cccc43)n2)CC1 [Compound I-14, 2-(4-{4-[4-(4-Methanesulfonyl-piperidin-1-yl)-indol-1-yl]-pyrimidin-2-ylamino}-cyclohexyl)-propan-2-ol] | 3 | 19.2
5 | CN(C)S(=O)(=O)N[C@H]1CC[C@H](Nc2nccc(-n3ccc4c(N5CCC(S(C)(=O)=O)CC5)cccc43)n2)CC1 [Compound I-15, [4-{4-[4-(4-Methanesulfonyl-piperidin-1-yl)-indol-1-yl]-pyrimidin-2-ylamino}-cyclohexyl]aminodimethylsulfonamide] | 3.6 | 20.8
6 | CC(=O)N1CCN(c2cccc3c2ccn3-c2ccnc(N[C@H]3CC[C@H](C(=O)N4CCC(O)CC4)CC3)n2)[C@H](C)C1 [Compound I-21, 1-[(R)-4-(1-{2-[4-(4-Hydroxy-piperidine-1-carbonyl)-cyclohexylamino]-pyrimidin-4-yl}-1H-indol-4-yl)-3-methyl-piperazin-1-yl]-ethanone] | 31.2 | 138
7 | CC(C)(C)OC(=O)NCC(=O)N1CCN(c2cccc3c2ccn3-c2ccnc(N[C@H]3CC[C@H](NS(C)(=O)=O)CC3)n2)CC1 [Compound I-22, [2-(4-{1-[2-(4-Methanesulfonylamino-cyclohexylamino)-pyrimidin-4-yl]-1H-indol-4-yl}-piperazin-1-yl)-2-oxo-ethyl]-carbamic acid tert-butyl ester] | 3.6 | 26.4
8 | CN(C)CC(=O)N1CCN(c2cccc3c2ccn3-c2ccnc(N[C@H]3CC[C@H](NS(C)(=O)=O)CC3)n2)CC1 [Compound I-23, N-[4-(4-{4-[4-(2-Dimethylamino-acetyl)-piperazin-1-yl]-indol-1-yl}-pyrimidin-2-ylamino)-cyclohexyl]-methanesulfonamide] | 378 | 1630
9 | CN(C)CCN([C@H]1CC[C@H](Nc2nccc(-n3ccc4c(N5CCN(C(=O)CC#N)CC5)cccc43)n2)CC1)S(C)(=O)=O [Compound I-26, N-[4-(4-{4-[4-(2-Cyano-acetyl)-piperazin-1-yl]-indol-1-yl}-pyrimidin-2-ylamino)-cyclohexyl]-N-(2-dimethylamino-ethyl)-methanesulfonamide] | 3.7 | 24.6
10 | CC(=O)N1CCN(c2cccc3c2ccn3-c2ccnc(N[C@H]3CC[C@H](CS(C)(=O)=O)CC3)n2)CC1 [Compound I-41, 1-(4-{1-[2-(4-Methanesulfonylmethyl-cyclohexylamino)-pyrimidin-4-yl]-1H-indol-4-yl}-piperazin-1-yl)-ethanone] | 25 | 164
11 | CS(=O)(=O)C[C@H]1CC[C@H](Nc2nccc(-n3ccc4c(N5CCN(C(=O)CC#N)CC5)cccc43)n2)CC1 [Compound I-42, 3-(4-{1-[2-(4-Methanesulfonylmethyl-cyclohexylamino)-pyrimidin-4-yl]-1H-indol-4-yl}-piperazin-1-yl)-3-oxo-propionitrile] | 2.4 | 13.6
12 | CS(=O)(=O)C1CCN(c2cccc3c2ccn3-c2ccnc(N[C@H]3CC[C@H](C(=O)N4CCn5c(nnc5C(F)(F)F)C4)CC3)n2)CC1 [Compound I-51, (4-{4-[4-(4-Methanesulfonyl-piperidin-1-yl)-indol-1-yl]-pyrimidin-2-ylamino}-cyclohexyl)-(3-trifluoromethyl-5,6-dihydro-8H-[1,2,4]triazolo[4,3-a]pyrazin-7-yl)-methanone] | 3.6 | 6.2
13 | N#CCC(=O)N1CCN(c2cccc3c2ccn3-c2ccnc(N[C@H]3CC[C@H](O)CC3)n2)CC1 [Compound I-55, 3-(4-{1-[2-(4-Hydroxy-cyclohexylamino)-pyrimidin-4-yl]-1H-indol-4-yl}-piperazin-1-yl)-3-oxo-propionitrile] | 4.4 | 23.1
14 | CC(=O)N1CCN(c2cccc3c2c(C(N)=O)cn3-c2ccnc(N[C@H]3CC[C@H](CS(C)(=O)=O)CC3)n2)CC1 [Compound I-64, 4-(4-Acetyl-piperazin-1-yl)-1-[2-(4-methanesulfonylmethyl-cyclohexylamino)-pyrimidin-4-yl]-1H-indole-3-carboxylic acid amide] | – | 13.9

Second part, the compound after the results:

Row | IC50 [1] [nM] | IC50 [2] [nM] | SMILES
15 | 93.9 | 654 | O[C@H]1CC[C@H](Nc2nccc(-n3ccc4c(N5CCCCC5)cccc43)n2)CC1 [Compound I-2, 4-[4-(4-Piperidin-1-yl-indol-1-yl)-pyrimidin-2-ylamino]-cyclohexanol]
16 | 42.9 | 292 | CS(=O)(=O)N[C@H]1CC[C@H](Nc2nccc(-n3ccc4c(N5CCC(O)CC5)cccc43)n2)CC1 [Compound I-4, N-(4-{4-[4-(4-Hydroxy-piperidin-1-yl)-indol-1-yl]-pyrimidin-2-ylamino}-cyclohexyl)-methanesulfonamide]
17 | 10.3 | 105 | CC(=O)N1CCN(c2cccc3c2ccn3-c2ccnc(N[C@H]3CC[C@H](N(C)S(C)(=O)=O)CC3)n2)CC1 [Compound I-5, N-(4-{4-[4-(4-Acetyl-piperazin-1-yl)-indol-1-yl]-pyrimidin-2-ylamino}-cyclohexyl)-N-methyl-methanesulfonamide]
18 | 3 | 23.5 | CS(=O)(=O)N[C@H]1CC[C@H](Nc2nccc(-n3ccc4c(N5CCC(S(C)(=O)=O)CC5)cccc43)n2)CC1 [Compound I-6, N-(4-{4-[4-(4-Methanesulfonyl-piperidin-1-yl)-indol-1-yl]-pyrimidin-2-ylamino}-cyclohexyl)-methanesulfonamide]
19 | 77.7 | 477 | CS(=O)(=O)N[C@H]1CC[C@H](Nc2nccc(-n3ccc4c(N5CCN(C(=O)CN)CC5)cccc43)n2)CC1 [Compound I-24, N-[4-(4-{4-[4-(2-Amino-acetyl)-piperazin-1-yl]-indol-1-yl}-pyrimidin-2-ylamino)-cyclohexyl]-methanesulfonamide]
20 | 4.2 | 25.6 | N#CCC(=O)N1CCN(c2cccc3c2ccn3-c2ccnc(N[C@H]3CC[C@H](CN4CC[C@@H](O)C4)CC3)n2)CC1 [Compound I-25, 3-[4-(1-{2-[4-((R)-3-Hydroxy-pyrrolidin-1-ylmethyl)-cyclohexylamino]-pyrimidin-4-yl}-1H-indol-4-yl)-piperazin-1-yl]-3-oxo-propionitrile]
21 | 48.4 | 4030 | CC(=O)N1CCN(c2cccc3c2ccn3-c2ccnc(NC3CCCCC3)n2)CC1 [Compound I-37, 1-{4-[1-(2-Cyclohexylamino-pyrimidin-4-yl)-1H-indol-4-yl]-piperazin-1-yl}-ethanone]
22 | – | 150 | N#CCC(=O)N1CCN(c2cccc3c2ccn3-c2ccnc(N[C@H]3CC[C@H](O)C3)n2)CC1 [Compound I-60, 3-(4-{1-[2-((1S,3S)-3-Hydroxy-cyclopentylamino)-pyrimidin-4-yl]-1H-indol-4-yl}-piperazin-1-yl)-3-oxo-propionitrile]
23 | – | 105 | N#CCC(=O)N1CCN(c2cccc3c2ccn3-c2ccnc(N[C@@H]3CC[C@@H](O)C3)n2)CC1 [Compound I-61, 3-(4-{1-[2-((1R,3R)-3-Hydroxy-cyclopentylamino)-pyrimidin-4-yl]-1H-indol-4-yl}-piperazin-1-yl)-3-oxo-propionitrile]
